Assay results from patent US20120010557A1, “Drug Delivery System for Use in the Treatment of Vascular and Vessel-Related Pathologies” (priority 2009, published 2012).

Columns and labels:
[1] = not told; cited from earlier work
[2] = tested on: laser-induced thrombus in hamster dorsal skin fold venules; assay: Laser-induced thrombosis in hamster dorsal skin fold venules, intravital fluorescence microscopy; assay type: in vivo; conditions: infused
From the text: In the research that led to the invention it was shown that, in PWS vascular analogues (hamster dorsal skin fold venules), the photothermal response is ensued by a hemodynamic response, namely the initiation of primary and secondary hemostasis following laser-induced endovascular damage. There is increasing evidence that misfolded proteins and corollary fibrillar structures referred to as amyloid have the propensity to activate platelets (Herczenik E et al. Arterioscler Thromb Vasc Biol. 2007 July; 27(7):1657-65) and the contact activation pathway (Maas C et al. J Clin Invest. 2008 September; 118(9):3208-18). Inasmuch as thermal coagula are comprised of thermally denatured (i.e., misfolded) proteins, these laser-induced lesions may constitute the basis for the initiation of primary and secondary hemostasis in addition to a thermally afflicted endothelium. […]
FIG. 1: Aggregation of 5,6-carboxyfluorescein (CF)-labeled platelets at the site of laser-induced damage in hamster dorsal skin fold venules as visualized by intravital fluorescence microscopy without (A-F) and with (G-L) priorly infused heparin (Hep). […]

Molecule | Increase in bilayer permeability [1] | Effect on laser-induced thrombus formation / lesional size [2]
CC=CC=CC(=O)OCCCCCCCCCC(=O)OC[C@H](COP(=O)([O-])OCC[N+](C)(C)C)OC(=O)CCCCCCCCCOC(=O)C=CC=CC [bis-SorbPC, 1,2-bis[10-(2′,4′-hexadienoloxy)decanonyl]-sn-glycero-3-phosphocholine] | up to 28.000 fold | 
heparin |  | impeding effect on the lesional size
